Results: ChEMBL document CHEMBL3137667, “[Drug-induced liver injury; fourteenth updated edition of the bibliographic database of liver injuries and related drugs]” (Gastroenterol Clin Biol, 2004)

Tests used:
[1] = Highest frequency of moderate liver toxicity observed during clinical trials, expressed as a percentage. [column '% BIOL' in source]; conditions: human
[2] = Highest frequency of acute liver toxicity observed during clinical trials, expressed as a percentage. [column '% AIGUE' in source]; conditions: human
[3] = Presence of at least one case with successful reintroduction. [column 'REINT' in source]; conditions: human
[4] = Comments (NB not yet translated). [column 'COMMENTAIRES' in source]; conditions: human
[5] = Times to onset, minimal and maximal, observed in the indexed observations. [column 'DELAI' in source]; conditions: human
[6] = human, serum
[7] = human, serum; remark: listed apart in the source
[8] = human
[9] = human; remark: listed apart in the source
[10] = human; remark: listed apart in the source
[11] = human, serum, 4383 h
[12] = human; remark: listed apart in the source
[13] = human; remark: listed apart in the source
[14] = human; remark: listed apart in the source
[15] = human; remark: listed apart in the source
[16] = human; remark: listed apart in the source
[17] = human; remark: listed apart in the source
[18] = Proposed mechanism(s) of liver damage. [column 'MEC' in source]; conditions: human
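Throughout, for Hepatotoxicity (association with vascular disease): count of indexed literature references reporting vascular liver injury in humans, e.g. peliosis hepatitis, hepatic veno-occlusive disease or Budd-Chiari syndrome.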
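Throughout, for Hepatotoxicity (benign tumour): value is a count of indexed literature references citing a benign tumour confirmed by histopathology.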
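Throughout, for Hepatotoxicity (choleostasis): human cholestatic liver injury, shown by histopathology or by peak ALT or AST elevation over alkaline phosphatase ratio below 2, value counts indexed literature reports.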
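Throughout, for Hepatotoxicity (chronic liver disease): chronic liver injury confirmed by histopathology or persistently raised serum aminotransferase activity beyond 6 months, value given as the count of indexed literature references.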
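Throughout, for Hepatotoxicity (cirrhosis): value is a count of indexed literature references reporting cirrhosis confirmed by histopathology.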
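Throughout, for Hepatotoxicity (cytolytic): human cytolytic liver injury, shown by histopathology or by a ratio above 5 of peak ALT or AST elevation to alkaline phosphatase elevation, value counts indexed references.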
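Throughout, for Hepatotoxicity (granulomatous hepatitis): value is a count of indexed literature references reporting granulomatous liver disease confirmed by histopathology.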
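Throughout, for Hepatotoxicity (malignant tumour): malignant tumour confirmed by histopathology, value gives the count of indexed literature references reporting it.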
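Throughout, for Hepatotoxicity (severe hepatitis): human clinical data: severe hepatitis, meaning potentially life-threatening liver failure or clinically observed cases, the value counts how many indexed literature references report it.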
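Throughout, for Hepatotoxicity (steatosis): steatosis confirmed by histopathology, value is the count of indexed references.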

Compound | Hepatotoxicity (moderate) [1] | Hepatotoxicity (acute) [2] | Hepatotoxicity (successful reintroduction) [3] | Hepatotoxicity (comment) [4] | Hepatotoxicity (time to onset) [5] | Hepatotoxicity (moderate) [6] | Hepatotoxicity (acute) [7] | Hepatotoxicity (cytolytic) [8] | Hepatotoxicity (choleostasis) [9] | Hepatotoxicity (severe hepatitis) [10] | Hepatotoxicity (chronic liver disease) [11] | Hepatotoxicity (cirrhosis) [12] | Hepatotoxicity (granulomatous hepatitis) [13] | Hepatotoxicity (association with vascular disease) [14] | Hepatotoxicity (steatosis) [15] | Hepatotoxicity (malignant tumour) [16] | Hepatotoxicity (benign tumour) [17] | Hepatotoxicity (mechanism) [18] | further results
O=C(N[C@H](CO)[C@H](O)c1ccc([N+](=O)[O-])cc1)C(Cl)Cl [CHLORAMPHENICOL] | 46.2% | 7.7% | yes | RC/COTRIMOXAZOLE | 1 month - 2 months | 1 | 14 | 2 | 1 | 0 | 0 | 0 | 0 | 0 | 1 | 0 | 0 | – | –
C[C@]12CC[C@@H]3c4ccc(OC(=O)N(CCCl)CCCl)cc4CC[C@H]3[C@@H]1CC[C@@H]2O [ESTRAMUSTINE] | 2% | 2% | yes | NASH | 1 month | 3 | 2 | 1 | 0 | 0 | 1 | 0 | 0 | 0 | 1 | 0 | 0 | – | –
CC(C)(C)c1ccc(C(O)CCCN2CCC(C(O)(c3ccccc3)c3ccccc3)CC2)cc1 (stereo unspecified) [TERFENADINE] | – | – | yes | DESTRUCTION_VB | 4 weeks - 5 months | 1 | – | 2 | 2 | – | 0 | 0 | 0 | 0 | 0 | 0 | 0 | – | Hepatotoxicity (moderate) ([1]; Liver): 19.2%; Hepatotoxicity (acute) ([2]; Liver): 0%; Hepatotoxicity (severe hepatitis) ([10]; Liver): 0
Cn1c(=O)c2[nH]cnc2n(C)c1=O.O [THEOPHYLLINE] | 55.6% | 0% | yes | – | 4 days - 11 days | 2 | 1 | 1 | 0 | 0 | 0 | 0 | 0 | 0 | 0 | 0 | 0 | Dose-dependant | –
CCCC(C)C1(CC)C(=O)NC(=S)NC1=O (stereo unspecified) [THIOPENTAL] | 87% | 0% | yes | – | 1 day - 5 days | 4 | 2 | 1 | 0 | 0 | 0 | 0 | 0 | 0 | 1 | 0 | 0 | Dose-dependant | –
INTERFERON GAMMA-1A | 65% | 0% | yes | – | 6 days - 3 months | 50 | 3 | 2 | 0 | 1 | 0 | 0 | 0 | 0 | 0 | 0 | 0 | Dose-dependant | –
